These are literature values, as cited in patent publication US5362496A, “Method and therapeutic system for smoking cessation” (priority 1993, dated 1994).

Data set [1] has as its system Streptococcus mutans and other oral microorganisms.
The conditions of data set [2]: relative, Sucrose = 1.0.
For data set [3] the following is noted: in vitro and in vivo studies.
For data set [4] the following is noted: humans.
The conditions of data set [5]: free base; mucous membranes and intact skin.
The conditions of data set [6]: human cadaver skin in vitro.
In data set [7] the test system is nicotinic cholinergic receptors in the central nervous system and at autonomic ganglia. As to conditions: in 10 minutes.

Read-outs that look alike come from different tables or passages of the source. Peptide text beside a SMILES is read from it.

As for `OC[C@@H](O)[C@H](O)[C@@H](O)CO` [Xylitol], the cariogenicity entry in data set [1] was “generally not fermented to any significant degree and are less cariogenic than sucrose”. Moreover, the Sweetness in data set [2] was 1.0. Moreover, the “effect on development of new caries” value in data set [3] is recorded as “inhibit the development of new caries”. In addition, in data set [4], the “effect on food intake” value is “decrease food intake” and the “effect on gastric emptying” value is given as “prolong gastric emptying”. Consider `COc1ccc([C@@H]2CC(=O)c3c(O)cc(O[C@@H]4O[C@H](CO)[C@@H](O)[C@H](O)[C@H]4O[C@@H]4O[C@@H](C)[C@H](O)[C@@H](O)[C@H]4O)cc3O2)cc1O` [Neohesperidine], for which the Sweetness in data set [2] is 1000. As to `O=C(CO)[C@@H](O)[C@H](O)[C@H](O)CO` [fructose], the cariogenicity result in data set [1] was “generally not fermented to any significant degree and are less cariogenic than sucrose”. On to `COC(=O)[C@H](Cc1ccccc1)NC(=O)[C@@H](N)CC(=O)O` [Aspartame] (H-Asp-Phe-OMe), for which, in data set [2], the Sweetness is listed as 100-200. Consider starch, for which, in data set [1], the cariogenicity result is “cariogenic or caries causing”. As for `OC[C@@H](O)[C@@H](O)[C@H](O)[C@@H](O)CO` [Sorbitol], the cariogenicity entry in data set [1] was “generally not fermented to any significant degree and are less cariogenic than sucrose”. Moreover, the Sweetness in data set [2] is reported as 0.5-0.6. As for `O=C(CO)[C@@H](O)[C@H](O)[C@H](O)CO[C@H]1O[C@H](CO)[C@@H](O)[C@H](O)[C@H]1O` [Palantinose], the cariogenicity entry in data set [1] was “generally not fermented to any significant degree and are less cariogenic than sucrose”. Besides, in data set [2], the Sweetness was 0.4-0.5. Consider `O=C1NS(=O)(=O)c2ccccc21` [Saccharin], for which, in data set [2], the Sweetness is 400-500. Consider `CN1CCCC1c1cccnc1` (stereo not shown) [nicotine], for which the lipid solubility result is listed as “highly lipid soluble”. Moreover, the “absorption through membranes and skin” value in data set [5] was “absorbed readily through mucous membranes and intact skin”. Moreover, the skin permeability in data set [6] (first day of patch use) is on record as about 0.1 mg/cm^2 ·h. Also, in data set [6] (later times), the skin permeability is reported as at least 0.4 mg/cm^2 ·h. The volatility entry (free base) is reported as “extremely volatile”. Also, the light stability entry (ultraviolet light) was “degrades when exposed to ultraviolet light”. Also, in data set [7], the “rise in nicotine blood level required for postsynaptic effects” value was “at least 10 ng/mL”.

With Monellin, the Sweetness in data set [2] was 2500.

On to `OC[C@@H](O)[C@@H](O[C@H]1O[C@H](CO)[C@@H](O)[C@H](O)[C@H]1O)[C@H](O)[C@@H](O)CO` [Maltitol], for which, in data set [1], the cariogenicity result is “generally not fermented to any significant degree and are less cariogenic than sucrose”. In addition, the Sweetness in data set [2] is recorded as 0.7-0.9. Turning to `OC[C@H]1O[C@@](CO)(O[C@H]2O[C@H](CO)[C@@H](O)[C@H](O)[C@H]2O)[C@@H](O)[C@@H]1O` [sucrose, reference compound], the cariogenicity result in data set [1] is “cariogenic or caries causing”. With `OC[C@@H](O)[C@@H](O)[C@H](O)[C@H](O)CO` [Mannitol], the cariogenicity entry in data set [1] is “generally not fermented to any significant degree and are less cariogenic than sucrose”. Moreover, the Sweetness in data set [2] was 0.4-0.6.

In the case of `O=S(=O)(O)NC1CCCCC1` [Cyclamate], the Sweetness in data set [2] was 30-40.

With `CC1=CC(=O)NS(=O)(=O)O1` [Acesulfame], the Sweetness in data set [2] is reported as 200. For the compound `CC1(C)[C@@H](O[C@H]2O[C@H](C(=O)O)[C@@H](O)[C@H](O)[C@H]2O[C@@H]2O[C@H](C(=O)O)[C@@H](O)[C@H](O)[C@H]2O)CC[C@]2(C)[C@H]3C(=O)C=C4[C@@H]5C[C@@](C)(C(=O)O)CC[C@]5(C)CC[C@@]4(C)[C@]3(C)CC[C@@H]12` [ammonium glycyrrhizinate], in data set [1], the cariogenicity entry is “generally not fermented to any significant degree and are less cariogenic than sucrose”.

For `O=C[C@H](O)[C@@H](O)[C@H](O)[C@H](O)CO` [glucose], in data set [1], the cariogenicity result is on record as “cariogenic or caries causing”.
